According to article PMC7073229, “Novel Quinoline Compounds Active in Cancer Cells through Coupled DNA Methyltransferase Inhibition and Degradation” (Cancers, 2020):

How the values were obtained:
[1] = target: T1, C-terminal catalytic domain of human DNMT3A (hDNMT3A) (Homo sapiens, UniProt Q9Y6K1); test: DNMT3A restriction-based fluorescence assay; type: biochemical; settings: for EC50: mean of at least two independent experiments, read-out: Enzyme Inhibition (EC50 ± SD) hDNMT3A
T1 construct: the C-terminal catalytic domain of human DNMT3A (hDNMT3A)
T1 sequence (Q9Y6K1 634-912 limits assumed): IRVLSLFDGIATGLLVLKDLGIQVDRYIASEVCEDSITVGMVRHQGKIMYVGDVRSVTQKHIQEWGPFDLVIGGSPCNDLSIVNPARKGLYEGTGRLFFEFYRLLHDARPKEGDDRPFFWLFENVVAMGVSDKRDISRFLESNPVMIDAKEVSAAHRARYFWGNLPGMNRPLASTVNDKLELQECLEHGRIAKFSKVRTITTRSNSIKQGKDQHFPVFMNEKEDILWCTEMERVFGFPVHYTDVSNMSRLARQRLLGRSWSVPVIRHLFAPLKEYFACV
Protocol: DNMT3A enzyme inhibition was adapted from the restriction-based fluorescence assay protocol described in Ceccaldi et al.. Briefly, a biotin-labelled oligonucleotide at the 5’ end is hybridized to his complementary strand labelled at the 3’ end with 6-carboxyfluorescein. The DNA duplex containing only one single CpG site overlapping with a restriction site of a methylation sensitive restriction enzyme is transferred in the wells coated with avidin. The methylation reaction is performed by adding human C-terminal DNMT3A at the final concentration of 4 ng/µL in a total volume of 50 µL in the presence of the inhibitors at various concentrations and the co-substrate SAM at the final concentration of 20 µM. The plate was incubated for 1 h at 37 °C, washed, and added with the methylation sensitive restriction enzyme HpyCH4IV, incubated for 1 h further at 37 °C, washed and the fluorescence measured with a PerkinElmer Envision Multilabel Plate Reader. The data are expressed as percentage of inhibition vs. log concentration (M). Data are normalized referring to the “restriction control” (wells coated with labelled duplex not treated nor exposed to DNMT3A, but only cleaved by HpyCH4IV) as the maximum of inhibition (100%) and to the “DMSO control” (wells coated with labelled duplex but treated just with 0.1% DMSO exposed to DNMT3A and then to HpyCH4IV) as the minimum of inhibition (0%; total methylation).

F21T G-quadruplex DNA = test: FRET melting assay, G-quadruplex DNA; type: binding
Protocol: (§1) Experimental procedure for Fluorescence Resonance Energy Transfer (FRET) melting assay Oligonucleotides labeled at 5’ with FAM (6-carboxyfluorescein) as donor fluorophore and TAMRA (6 - carboxytetramethylrhodamine) at 3’ as the acceptor fluorophore were purchased from STAB VIDA (Portugal). Each oligonucleotide was initial ly diluted to 100 µM in water (Molecular Biology Reagent, Sigma). Stock solutions of 20 µM and subsequent dilutions were made with FRET buffer (60 mM KCl, potassium cacodylate, pH 7.4). Tagged oligonucleotides at 0.4 µM were annealed by heating at 90 -95 °C for 10 min, followed by slow cooling to room temperature. St ock solutions of compounds (1 mM) were prepared in 10% DMSO. Subsequent dilutions were performed using FRET buffer. Annealed DNA (50 µL) and test compound solutions (50 µL) were distributed across 96-well RT-PCR plates (PCR-96-FLT-C, Axygen, Inc). Fluorescence readings (performed in a 7300 RT -PCR equipment from Applied Biosystems) were taken at intervals of 0.5 °C in the range 31 –95 °C, with the temperature being maintained for 30 seconds prior to each reading. Experiments were performed in triplicate. Fina l analysis of the data was carried out with GraphPad Prism v.5.0 (GraphPad Software Inc., La Jolla, CA, USA).
(§2) The advanced curve-fitting function in GraphPad Prism (nonlinear regression fit) was used for calculation of ΔTm values. Only results with fitting r2 values > 0.75 (std error < 0.25) were considered.
(§3) Table S2. Synthetic oligonucleotides used in FRET experiments.

KRAS21R G-quadruplex DNA = test: FRET melting assay, G-quadruplex DNA; type: binding
Protocol: as §1, §2, §3

DNMT1 protein = target: T2, DNMT1 protein (Homo sapiens, UniProt P26358); test: Western blot of DNMT1 protein level in HCT116 cells; type: cell-based; settings: HCT116, 1 µM, 24 h
T2 construct: endogenous in cells; host or cells: HCT116
T2 sequence (P26358 whole entry): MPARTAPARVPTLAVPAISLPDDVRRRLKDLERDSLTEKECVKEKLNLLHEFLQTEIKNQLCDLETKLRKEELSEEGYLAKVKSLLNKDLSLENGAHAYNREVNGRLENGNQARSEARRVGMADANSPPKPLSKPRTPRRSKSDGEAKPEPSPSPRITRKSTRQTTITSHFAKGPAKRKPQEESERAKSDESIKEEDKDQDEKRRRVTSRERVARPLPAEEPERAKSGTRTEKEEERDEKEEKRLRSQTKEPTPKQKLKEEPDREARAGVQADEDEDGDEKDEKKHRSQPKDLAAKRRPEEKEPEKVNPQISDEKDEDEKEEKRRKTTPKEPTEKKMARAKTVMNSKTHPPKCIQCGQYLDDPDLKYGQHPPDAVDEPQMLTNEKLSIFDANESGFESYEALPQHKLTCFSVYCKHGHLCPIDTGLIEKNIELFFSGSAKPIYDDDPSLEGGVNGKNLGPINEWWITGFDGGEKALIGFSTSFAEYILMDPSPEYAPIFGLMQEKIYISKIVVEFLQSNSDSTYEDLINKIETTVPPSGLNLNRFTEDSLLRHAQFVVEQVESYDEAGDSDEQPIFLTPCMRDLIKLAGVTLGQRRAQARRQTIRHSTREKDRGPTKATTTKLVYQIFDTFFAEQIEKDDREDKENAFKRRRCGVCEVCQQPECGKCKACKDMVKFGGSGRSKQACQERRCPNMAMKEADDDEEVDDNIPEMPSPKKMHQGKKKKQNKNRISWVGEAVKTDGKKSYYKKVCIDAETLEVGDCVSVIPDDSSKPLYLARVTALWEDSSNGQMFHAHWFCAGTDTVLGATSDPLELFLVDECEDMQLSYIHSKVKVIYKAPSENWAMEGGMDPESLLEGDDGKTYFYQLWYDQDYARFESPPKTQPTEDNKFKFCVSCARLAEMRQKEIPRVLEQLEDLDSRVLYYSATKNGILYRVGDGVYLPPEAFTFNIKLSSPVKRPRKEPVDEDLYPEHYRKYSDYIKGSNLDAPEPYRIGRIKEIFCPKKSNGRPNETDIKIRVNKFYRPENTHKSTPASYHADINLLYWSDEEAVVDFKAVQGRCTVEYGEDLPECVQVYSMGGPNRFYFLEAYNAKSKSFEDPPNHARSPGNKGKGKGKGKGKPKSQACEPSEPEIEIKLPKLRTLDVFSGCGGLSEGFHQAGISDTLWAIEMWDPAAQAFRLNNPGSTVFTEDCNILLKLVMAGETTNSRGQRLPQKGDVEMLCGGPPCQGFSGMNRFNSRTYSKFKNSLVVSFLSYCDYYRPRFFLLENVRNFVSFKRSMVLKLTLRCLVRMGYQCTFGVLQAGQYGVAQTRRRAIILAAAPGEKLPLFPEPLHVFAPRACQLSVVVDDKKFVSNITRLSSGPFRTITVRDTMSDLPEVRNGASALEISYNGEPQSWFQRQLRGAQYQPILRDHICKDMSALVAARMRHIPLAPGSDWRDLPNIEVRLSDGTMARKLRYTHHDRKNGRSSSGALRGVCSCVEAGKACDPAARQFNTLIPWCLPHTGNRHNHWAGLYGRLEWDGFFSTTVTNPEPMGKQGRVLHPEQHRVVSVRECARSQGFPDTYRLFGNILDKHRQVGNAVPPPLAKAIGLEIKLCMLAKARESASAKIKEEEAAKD
Description: (§4) Cells were lysed in Laemmli buffer; subsequently the proteins were resolved by sodium dodecyl sulphate-polyacrylamide gel electrophoresis and transferred to a 0.45 µm nitrocellulose membrane (Bio-Rad Laboratories, Hercules, CA, USA). The following primary antibodies were used for immunoblotting: α-DNMT1 (Novus Biologicals, Littleton, CO, USA). α-DNMT3a (SantaCruz Bio-technologies, CA, USA) and α-GAPDH (Millipore Corp., Bedford, MA USA), used as a loading control. The immune complexes were detected with horseradish peroxidase-conjugated species-specific secondary antiserum (Bio-Rad Laboratories, Hercules, CA, USA) then by enhanced chemiluminescence reaction (Bio-Rad Laboratories, Hercules, CA, USA). Densitometric analysis of protein expression was performed by using the Fiji-Image J image processing package.

DNMT3A protein = target: T3, DNMT3A protein (Homo sapiens, UniProt Q9Y6K1); test: Western blot of DNMT3A protein level in HCT116 cells; type: cell-based; settings: 24 h
T3 construct: endogenous in cells; host or cells: HCT116
T3 sequence (Q9Y6K1 whole entry, looked up): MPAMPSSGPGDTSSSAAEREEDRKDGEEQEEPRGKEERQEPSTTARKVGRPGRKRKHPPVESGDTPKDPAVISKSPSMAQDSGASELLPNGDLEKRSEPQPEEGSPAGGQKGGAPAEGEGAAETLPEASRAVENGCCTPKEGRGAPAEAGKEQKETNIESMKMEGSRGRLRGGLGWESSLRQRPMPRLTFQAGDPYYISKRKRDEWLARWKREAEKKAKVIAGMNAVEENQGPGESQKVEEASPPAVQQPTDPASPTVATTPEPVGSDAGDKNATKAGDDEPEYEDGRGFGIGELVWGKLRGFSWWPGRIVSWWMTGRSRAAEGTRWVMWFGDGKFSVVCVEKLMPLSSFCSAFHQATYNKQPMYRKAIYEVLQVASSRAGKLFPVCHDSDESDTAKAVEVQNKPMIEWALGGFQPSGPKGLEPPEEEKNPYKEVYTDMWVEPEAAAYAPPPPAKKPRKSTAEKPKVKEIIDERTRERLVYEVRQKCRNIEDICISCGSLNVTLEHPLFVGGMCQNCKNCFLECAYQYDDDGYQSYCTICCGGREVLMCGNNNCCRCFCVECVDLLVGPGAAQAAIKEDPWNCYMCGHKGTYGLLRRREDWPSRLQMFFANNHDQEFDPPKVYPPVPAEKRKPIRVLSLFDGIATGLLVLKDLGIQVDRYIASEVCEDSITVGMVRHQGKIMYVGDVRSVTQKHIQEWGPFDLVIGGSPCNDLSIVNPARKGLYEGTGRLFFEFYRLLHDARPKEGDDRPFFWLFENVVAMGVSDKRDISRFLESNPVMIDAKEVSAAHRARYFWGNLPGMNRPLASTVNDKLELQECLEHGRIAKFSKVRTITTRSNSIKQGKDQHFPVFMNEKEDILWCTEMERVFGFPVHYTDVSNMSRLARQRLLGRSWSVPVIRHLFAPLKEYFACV
Description: as §4

[2] = system: methylated UCHL1 promoter (pUCHL1) in HCT116 cells; test: UCHL1 promoter demethylation assay (EGFP induction, FACS); type: cell-based, human; settings: five days
Protocol: The assay was performed as described in [29]. Briefly, human colon cancer HCT116 (ATCC, VA, USA) cells were grown in Dulbecco’s Modified Eagle Medium (DMEM; Euroclone, Milan, Italy) supplemented with 10% fetal bovine serum (FBS; Euroclone, Milan, Italy), 2 mM L-glutamine (Euroclone), and antibiotics (100 U/mL penicillin, 100 µg/mL streptomycin) (Euroclone). The pUMLIEP vector (composed by MetLuc-IRES-EGFP construct upon the control of the ubiquitin carboxyl-terminal hydrolase L1 (UCHL1)) was linearized and methylated by with ClaI and SssI-methylase enzymes (New England Biolabs, Milan, Italy). After, methylated pUMLIEP was transfected into HCT116 cells following the protocol described in [30]. […] On day 5, cells were observed under by a fluorescent microscope (Cytation 5 Cell Imaging Multi-Mode Reader (BioTeK Milan, Italy) and BD Accuri flow cytometers. Nuclei were counterstained with DAPI (10 µg/mL, Invitrogen, Tournai, Belgium).

Compound	EC50 [1] [µM]	F21T ∆Tm (F21T G-quadruplex DNA; 5 µM)	F21T ∆Tm (F21T G-quadruplex DNA; 10 µM)	KRAS ∆Tm (KRAS21R G-quadruplex DNA; 5 µM)	KRAS ∆Tm (KRAS21R G-quadruplex DNA; 10 µM)	DNMT1 protein level (western blot) (DNMT1 protein)	DNMT3A protein level (western blot) (DNMT3A protein; HCT116, 1 µM)	pUCHL1 demethylation, EGFP-positive cells (FACS R1) ([2]; HCT116, 0.1 µM) [%]	fold more potent than 4 against hDNMT3A ([1]; ratio of EC50 values vs 4) [fold]	pUCHL1 demethylation, EGFP-positive cells (FACS R1) ([2]; HCT116, 0.5 µM) [%]	DNMT1 protein level (western blot) with bortezomib (DNMT1 protein; co-treated with bortezomib 10 nM)	DNMT3A protein level (western blot) (DNMT3A protein; HCT116, 0.1 µM)	DNMT3A protein level (western blot) with bortezomib (DNMT3A protein; HCT116, 1 µM, co-treated with bortezomib 10 nM)
O=C(Nc1ccc(Nc2ccnc3ccccc23)cc1)c1cccc(Nc2ccnc3ccccc23)c1 [Compound 2a]	6 ± 1	0 ºC	5.1 ºC	0 ºC	6.4 ºC	–	–	–	–	–	–	–	–
O=C(Nc1cccc(Nc2ccnc3ccccc23)c1)c1cccc(Nc2ccnc3ccccc23)c1 [Compound 2b]	–	2.8 ºC	5.0 ºC	1.0 ºC	7.7 ºC	decrease	decrease	–	–	–	–	–	–
O=C(Nc1cccc(Nc2ccnc3ccccc23)c1)c1ccc(Nc2ccnc3ccccc23)cc1 [Compound 2c]	5.6 ± 1	1 ºC	1.2 ºC	0 ºC	3.4 ºC	–	–	42.3	–	–	–	–	–
O=C(Nc1ccc(NC(=O)c2cccc(Nc3ccnc4ccccc34)c2)cc1)OCc1ccccc1 [Compound 4a]	> 32	0 ºC	4.3 ºC	2.5 ºC	4.6 ºC	–	–	–	–	–	–	–	–
O=C(Nc1cccc(NC(=O)c2ccc(Nc3ccnc4ccccc34)cc2)c1)OCc1ccccc1 [Compound 4c]	6.1 ± 1	0.8 ºC	1.5 ºC	1.0 ºC	2.6 ºC	decrease	decrease	–	3	58.7	rescued	decrease	rescued
